# Results from US9624182B2, “Compounds as lysophosphatidic acid receptor antagonists” (Amira Pharmaceuticals, Inc., priority 2009, dated 2017).
# Target: T1, human LPA1 (Homo sapiens, UniProt Q92633)
# T1 construct: the full-length cDNA for human LPA1 was obtained by PCR of the reverse transcription reaction; expressed in transfected cells
# Assay: LPA1 calcium flux assay
# Assay type: cell-based
# Conditions: CHO cells expressing human LPA1, stimulated with 10 nM LPA; read-out: HLPA1 Ca Flux IC50
# In short: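 CHO cells stably expressing cloned human LPA1, serum-starved overnight, loaded with Calcium 4 dye 1 h at 37 °C in HBSS/20 mM Hepes with 0.3% fatty-acid-free HSA. Compounds preincubated 30 min at room temperature, then cells stimulated with 10 nM LPA; intracellular Ca2+ read by fluorescence. IC50 from titration curves.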
# T1 sequence (Q92633 whole entry): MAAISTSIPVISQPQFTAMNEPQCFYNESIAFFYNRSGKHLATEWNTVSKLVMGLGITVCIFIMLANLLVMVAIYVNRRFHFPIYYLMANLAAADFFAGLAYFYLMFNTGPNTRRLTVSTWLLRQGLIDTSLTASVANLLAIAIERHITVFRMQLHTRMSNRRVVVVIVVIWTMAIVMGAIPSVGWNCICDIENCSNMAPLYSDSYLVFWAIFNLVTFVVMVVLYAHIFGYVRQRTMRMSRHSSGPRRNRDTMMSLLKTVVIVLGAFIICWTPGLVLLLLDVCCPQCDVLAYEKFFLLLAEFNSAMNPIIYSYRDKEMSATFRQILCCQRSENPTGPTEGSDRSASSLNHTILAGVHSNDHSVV
row,SMILES,IC50 [nM]
1,"Cc1noc(-c2ccc(-c3ccc(C4(CC(=O)O)CC4)cc3)cc2)c1NC(C)CCc1cccc(F)c1 (centres unmarked) [Compound 1-185, [1-(4′-{4-[3-(3-Fluoro-phenyl)-1-methyl-propylamino]-3-methyl-isoxazol-5-yl}-biphenyl-4-yl)-cyclopropyl]-acetic acid]",< 300
2,"Cc1noc(-c2ccc(-c3ccc(C4(C(=O)O)CC4)cc3)cc2)c1C(O)CN[C@H]1CCc2ccccc21 (stereo partly drawn) [Compound 1-187, 1-(4′-{4-[1-Hydroxy-2-((S)-indan-1-ylamino)-ethyl]-3-methyl-isoxazol-5-yl}-biphenyl-4-yl)-cyclopropanecarboxylic acid]",< 300
3,"Cc1noc(-c2ccc(-c3ccc(C(Cc4ccccc4)C(=O)O)cc3)cc2)c1C(O)CCCc1ccccc1 (centres unmarked) [Compound 1-188, 2-{4′-[4-(1-Hydroxy-4-phenyl-butyl)-3-methyl-isoxazol-5-yl]-biphenyl-4-yl}-3-phenyl-propionic acid]",< 300
4,"Cc1noc(-c2ccc(-c3ccc(C4(C(=O)O)CC4)cc3)cc2)c1C(CO)NCc1ccccc1 (centres unmarked) [Compound 1-189, 1-{4′-[4-(1-Benzylamino-2-hydroxy-ethyl)-3-methyl-isoxazol-5-yl]-biphenyl-4-yl}-cyclopropanecarboxylic acid]",< 300
5,"Cc1noc(-c2ccc(-c3ccc(C4(C(=O)O)CC4)cc3)cc2)c1C(O)CN (centres unmarked) [Compound 1-190, 1-{4′-[4-(2-Amino-1-hydroxy-ethyl)-3-methyl-isoxazol-5-yl]-biphenyl-4-yl}-cyclopropanecarboxylic acid]",< 300
6,"Cc1noc(-c2ccc(-c3ccc(CCC(=O)O)cc3)cc2)c1CSCCc1ccccc1 [Compound 1-191, 3-[4′-(3-Methyl-4-phenethylsulfanylmethyl-isoxazol-5-yl)-biphenyl-4-yl]-propionic acid]",< 300
7,"Cc1noc(-c2ccc(-c3ccc(CCC(=O)O)cc3)cc2)c1NC(C)CCc1cccc(C(F)(F)F)c1 (centres unmarked) [Compound 1-192, 3-(4′-{3-Methyl-4-[1-methyl-3-(3-trifluoromethyl-phenyl)-propylamino]-isoxazol-5-yl}-biphenyl-4-yl)-propionic acid]",< 300
8,"Cc1noc(-c2ccc(-c3ccc(CCC(=O)O)cc3)cc2)c1NC(C)CCc1cccc(Cl)c1 (centres unmarked) [Compound 1-193, 3-(4′-{4-[3-(3-Chloro-phenyl)-1-methyl-propylamino]-3-methyl-isoxazol-5-yl}-biphenyl-4-yl)-propionic acid]",< 300
9,"Cc1cnn(Cc2c(C)noc2-c2ccc(-c3ccc(C4(C(=O)O)CC4)cc3)cc2)c1 [Compound 1-194, 1-{4′-[3-Methyl-4-(4-methyl-pyrazol-1-ylmethyl)-isoxazol-5-yl]-biphenyl-4-yl}-cyclopropanecarboxylic acid]",1000 to 50000
10,"Cc1ccc2nc(NCc3c(C)noc3-c3ccc(-c4ccc(C5(C(=O)O)CC5)cc4)cc3)sc2c1 [Compound 1-195, 1-(4′-{3-Methyl-4-[(6-methyl-benzothiazol-2-ylamino)-methyl]-isoxazol-5-yl}-biphenyl-4-yl)-cyclopropanecarboxylic acid]",1000 to 50000
11,"Cc1noc(-c2ccc(-c3ccc(C4(C(=O)O)CC4)cc3)cc2)c1Cn1cc(Br)cn1 [Compound 1-196, 1-{4′-[4-(4-Bromo-pyrazol-1-ylmethyl)-3-methyl-isoxazol-5-yl]-biphenyl-4-yl}-cyclopropanecarboxylic acid]",1000 to 50000
12,"Cc1noc(-c2ccc(-c3ccc(CCC(=O)O)cc3)cc2)c1C(O)CCCc1ccccc1 (centres unmarked) [Compound 1-197, 3-{4′-[4-(1-Hydroxy-4-phenyl-butyl)-3-methyl-isoxazol-5-yl]-biphenyl-4-yl}-propionic acid]",< 300
13,"Cc1noc(-c2ccc(-c3cccc(CCC(=O)O)c3)cc2)c1C(O)CCCc1ccccc1 (centres unmarked) [Compound 1-200, 3-{4′-[4-(1-Hydroxy-4-phenyl-butyl)-3-methyl-isoxazol-5-yl]-biphenyl-3-yl}-propionic acid]",< 300
14,"Cc1noc(-c2ccc(-c3ccccc3CCC(=O)O)cc2)c1C(O)CCCc1ccccc1 (centres unmarked) [Compound 1-201, 3-{4′-[4-(1-Hydroxy-4-phenyl-butyl)-3-methyl-isoxazol-5-yl]-biphenyl-2-yl}-propionic acid]",1000 to 50000
15,"Cc1noc(-c2ccc(-c3ccc(C4(C(=O)O)CC4)cc3)cc2)c1C(=O)C[S+]([O-])Cc1ccccc1 (centres unmarked) [Compound 1-202, 1-{4′-[3-Methyl-4-(2-phenylmethanesulfinyl-acetyl)-isoxazol-5-yl]-biphenyl-4-yl}-cyclopropanecarboxylic acid]",1000 to 50000
16,"Cc1noc(-c2ccc(-c3ccccc3C3(C(=O)O)CC3)cc2)c1C(O)CCCc1ccccc1 (centres unmarked) [Compound 1-203, 1-{4′-[4-(1-Hydroxy-4-phenyl-butyl)-3-methyl-isoxazol-5-yl]-biphenyl-2-yl}-cyclopropanecarboxylic acid]",1000 to 50000

row,SMILES,IC50 [nM]
1,"CC(C)=CCCC(C)Nc1c(C)noc1-c1ccc(-c2ccc(C3(CC(=O)O)CC3)cc2)cc1 (centres unmarked) [Compound 1-204, (1-{4′-[4-(1,5-Dimethyl-hex-4-enylamino)-3-methyl-isoxazol-5-yl]-biphenyl-4-yl}-cyclopropyl)-acetic acid]",< 300
2,"CC(C)=CCCC(C)Nc1c(C)noc1-c1ccc(-c2ccc(C3(C(=O)O)CC3)cc2)cc1 (centres unmarked) [Compound 1-205, 1-{4′-[4-(1,5-Dimethyl-hex-4-enylamino)-3-methyl-isoxazol-5-yl]-biphenyl-4-yl}-cyclopropanecarboxylic acid]",< 300
3,"Cc1noc(-c2ccc(-c3ccc(C4(CC(=O)O)CC4)cc3)cc2)c1NC(C)c1ccc2ccccc2c1 (centres unmarked) [Compound 1-206, (1-{4′-[3-Methyl-4-(1-naphthalen-2-yl-ethylamino)-isoxazol-5-yl]-biphenyl-4-yl}-cyclopropyl)-acetic acid]",< 300
4,"Cc1noc(-c2ccc(-c3ccc(C4(CC(=O)O)CC4)cc3)cc2)c1C(O)CCCCc1ccccc1 (centres unmarked) [Compound 1-207, (1-{4′-[4-(1-Hydroxy-5-phenyl-pentyl)-3-methyl-isoxazol-5-yl]-biphenyl-4-yl}-cyclopropyl)-acetic acid]",< 300
5,"Cc1noc(-c2ccc(-c3ccc(C4(CC(=O)O)CC4)cc3)cc2)c1C(O)CCCCc1ccc(Cl)c(Cl)c1 (centres unmarked) [Compound 1-208, [1-(4′-{4-[5-(3,4-Dichloro-phenyl)-1-hydroxy-pentyl]-3-methyl-isoxazol-5-yl}-biphenyl-4-yl)-cyclopropyl]-acetic acid]",< 300
6,"COc1ccc(CCC(C)Nc2c(C)noc2-c2ccc(-c3ccc(C4(CC(=O)O)CC4)cc3)cc2)cc1 (centres unmarked) [Compound 1-211, [1-(4′-{4-[3-(4-Methoxy-phenyl)-1-methyl-propylamino]-3-methyl-isoxazol-5-yl}-biphenyl-4-yl)-cyclopropyl]-acetic acid]",300 to 1000
7,"Cc1noc(-c2ccc(-c3ccc(C4(C(=O)O)CC4)cc3)cc2)c1Nc1ncnc2scc(C)c12 [Compound 1-212, 1-{4′-[3-Methyl-4-(5-methyl-thieno[2,3-d]pyrimidin-4-ylamino)-isoxazol-5-yl]-biphenyl-4-yl}-cyclopropanecarboxylic acid]",1000 to 50000
8,"Cc1noc(-c2ccc(-c3ccc(C4(CC(=O)O)CC4)cc3)cc2)c1NC(CCc1ccccc1)c1ccccc1 (centres unmarked) [Compound 1-213, (1-{4′-[4-(1,3-Diphenyl-propylamino)-3-methyl-isoxazol-5-yl]-biphenyl-4-yl}-cyclopropyl)-acetic acid]",300 to 1000
9,"Cc1noc(-c2ccc(-c3ccc(C4(C(=O)O)CC4)cc3)cc2)c1NC(CCc1ccccc1)c1ccccc1 (centres unmarked) [Compound 1-214, 1-{4′-[4-(1,3-Diphenyl-propylamino)-3-methyl-isoxazol-5-yl]-biphenyl-4-yl}-cyclopropanecarboxylic acid]",300 to 1000
10,"Cc1noc(-c2ccc(-c3ccc(C4CC4C(=O)O)cc3)cc2)c1[C@@H](O)COCc1ccccc1 (stereo partly drawn) [Compound 1-215, (cis)-2-{4′-[4-((R)-2-Benzyloxy-1-hydroxy-ethyl)-3-methyl-isoxazol-5-yl]-biphenyl-4-yl}-cyclopropanecarboxylic acid]",< 300
11,"Cc1noc(-c2ccc(-c3ccc(C4(CC(=O)O)CC4)cc3)cc2)c1NC(C)CCc1ccc(Cl)cc1 (centres unmarked) [Compound 1-218, [1-(4′-{4-[3-(4-Chloro-phenyl)-1-methyl-propylamino]-3-methyl-isoxazol-5-yl}-biphenyl-4-yl)-cyclopropyl]-acetic acid]",< 300
12,"Cc1noc(-c2ccc(-c3ccc(C4(CC(=O)O)CC4)cc3)cc2)c1NC(C)CCc1c(F)cccc1Cl (centres unmarked) [Compound 1-219, [1-(4′-{4-[3-(2-Chloro-6-fluoro-phenyl)-1-methyl-propylamino]-3-methyl-isoxazol-5-yl}-biphenyl-4-yl)-cyclopropyl]-acetic acid]",< 300
13,"Cc1noc(-c2ccc(-c3ccc(C4(CC(=O)O)CC4)cc3)cc2)c1NC(C)CCc1ccccc1Cl (centres unmarked) [Compound 1-222, [1-(4′-{4-[3-(2-Chloro-phenyl)-1-methyl-propylamino]-3-methyl-isoxazol-5-yl}-biphenyl-4-yl)-cyclopropyl]-acetic acid]",< 300
14,"C=CCCC(C)Nc1c(C)noc1-c1ccc(-c2ccc(C3(CC(=O)O)CC3)cc2)cc1 (centres unmarked) [Compound 1-226, (1-{4′-[3-Methyl-4-(1-methyl-pent-4-enylamino)-isoxazol-5-yl]-biphenyl-4-yl}-cyclopropyl)-acetic acid]",300 to 1000
15,"C=CCCC(C)Nc1c(C)noc1-c1ccc(-c2ccc(C3(C(=O)O)CC3)cc2)cc1 (centres unmarked) [Compound 1-227, 1-{4′-[3-Methyl-4-(1-methyl-pent-4-enylamino)-isoxazol-5-yl]-biphenyl-4-yl}-cyclopropanecarboxylic acid]",< 300
16,"C=CCCC(C)Nc1c(C)noc1-c1ccc(-c2ccccc2CC(=O)O)cc1 (centres unmarked) [Compound 1-228, {4′-[3-Methyl-4-(1-methyl-pent-4-enylamino)-isoxazol-5-yl]-biphenyl-2-yl}-acetic acid]",1000 to 50000
